pIC50: −log10 of the molar value. Values joined by “and” are separate entries in the source; they are usually repeats but may differ in a detail not shown here. Equal values may be shown once.
Assays:
Assay in all cases: CellTiter-Glo dose-response cell viability assay
Assay type in all cases: cell-based, human
[1] = tested on: GB126 patient-derived GSC line
Protocol: (§1) QST (JNJ-26481585) is a second-generation hydroxamic acid harboring remarkable selectivity toward class I HDACs, with a biochemical IC50 of 0.1 nM for HDAC1 ([13]). […] To determine the cytotoxic effects of QST, we performed a dose-titration cell viability assay in 7 patient-derived GSC lines (BT145, GB187, GB239, GB282, GB71, GB82, and GB126) and 1 long-term serum-grown human GBM cell line (U87). Because GBMs display a high degree of intratumoral heterogeneity, we used GSCs derived from both primary and recurrent GBMs that harbored distinct genetic mutations or aberrations, growth rates, MGMT promoter methylation status, and gene expression profiles (Supplemental Figure 1; supplemental material available online with this article; https://doi.org/10.1172/jci.insight.167081DS1). Cell lines were treated with various concentrations of QST (10–1000 nM), and cell viability was measured 3–5 days later (Figure 1, A and B). […] Treatment with QST at the IC50 induced significant inhibition of proliferation (Ki67) and an increase in programmed cell death (cleaved caspase 3) in 2 different GSC lines (Figure 1, C and D). Additional analyses confirmed that QST induces apoptosis after short-term treatment through increased staining of the apoptotic marker annexin V (Figure 2A) and cell cycle arrest (in G2- or S-phase; Figure 2B and Supplemental Figure 1B).
(§2) GSCs were seeded in laminin-coated tissue culture–treated 96-well plates (clear bottom, white plate; Corning) at a density of 1000–5000 cells per well (cell line dependent) in GSC media. U87-MG were seeded using their normal growth conditions without laminin (10% bovine calf serum in DMEM). All cells were incubated at 37°C and allowed to adhere overnight. The next day, cells were treated with incremental concentrations of QST (Selleckchem; 0, 10, 25, 50, 100, 250, 500, and 1000 nM) diluted in media. Cells treated without QST were treated with DMSO diluted in media. Following treatment with QST, cells were grown for 3 to 5 days (cell line dependent), and cell viability was measured and quantified. All cell viability measurements were performed using the CellTiter-Glo luminescent cell viability assay (Promega) following the manufacturer’s instructions. For the sulforhodamine B colorimetric assay for cytotoxicity, the protocol was performed as described elsewhere ([33]). All cell viability results represent the mean of at least 3 biological replicates, each containing 3 technical replicates.

[2] = tested on: GB71 patient-derived GSC line
Protocol: as §1, §2

[3] = tested on: GB82 patient-derived GSC line
Protocol: as §1, §2

[4] = tested on: GB239 patient-derived GSC line; settings: GB239x3
Protocol: as §1, §2

[5] = Homo sapiens, QST 10 nM (log[nM] 1), read-out: Cell viability (fraction of DMSO control)
[6] = Homo sapiens, QST 25 nM (log[nM] 1.39794), read-out: Cell viability (fraction of DMSO control)
[7] = Homo sapiens, QST 50 nM (log[nM] 1.69897), read-out: Cell viability (fraction of DMSO control)
[8] = Homo sapiens, QST 100 nM (log[nM] 2), read-out: Cell viability (fraction of DMSO control)
[9] = Homo sapiens, QST 250 nM (log[nM] 2.39794), read-out: Cell viability (fraction of DMSO control)
[10] = Homo sapiens, QST 500 nM (log[nM] 2.69897), read-out: Cell viability (fraction of DMSO control)
[11] = Homo sapiens, QST 1000 nM (log[nM] 3), read-out: Cell viability (fraction of DMSO control)

Cn1cc(CNCC2CCN(c3ncc(C(=O)NO)cn3)CC2)c2ccccc21 [QST, quisinostat]
Cell viability (fraction of DMSO control) ([1]; GB126 (GB126xTdT), QST 10 nM (log[nM] 1), no IR): 0.8102 and 0.8005 | Cell viability (fraction of DMSO control) ([1]; GB126 (GB126xTdT), QST 25 nM (log[nM] 1.39794), no IR): 0.6353 and 0.6191 | Cell viability (fraction of DMSO control) ([1]; GB126 (GB126xTdT), QST 50 nM (log[nM] 1.69897), no IR): 0.4839 and 0.5154 | Cell viability (fraction of DMSO control) ([1]; GB126 (GB126xTdT), QST 100 nM (log[nM] 2), no IR): 0.3119 and 0.4774 | viability at 0.01 µM ([1]; Homo sapiens, GB126 (GB126xTdT), QST 10 nM (log[nM] 1), no IR, read-out: Cell viability (fraction of DMSO control)): 79.2% | viability at 0.025 µM ([1]; Homo sapiens, GB126 (GB126xTdT), QST 25 nM (log[nM] 1.39794), no IR, read-out: Cell viability (fraction of DMSO control)): 66.8% | viability at 0.05 µM ([1]; Homo sapiens, GB126 (GB126xTdT), QST 50 nM (log[nM] 1.69897), no IR, read-out: Cell viability (fraction of DMSO control)): 57.6% | viability at 0.1 µM ([1]; Homo sapiens, GB126 (GB126xTdT), QST 100 nM (log[nM] 2), no IR, read-out: Cell viability (fraction of DMSO control)): 44.3% | pIC50 ([1]; Homo sapiens, GB126, 3-5 days): 7.07 | pIC50 ([2]; Homo sapiens, 3-5 days): 7.54 | viability at 0.01 µM [2, 5]: 76.3% | viability at 0.025 µM [2, 6]: 68.5% | viability at 0.05 µM [2, 7]: 59.2% | viability at 0.1 µM [2, 8]: 46.1% | viability at 0.25 µM [2, 9]: 31.5% | viability at 0.5 µM [2, 10]: 24.4% | viability at 1 µM [2, 11]: 21.1% | Cell viability (fraction of DMSO control) ([2]; QST 10 nM (log[nM] 1)): 0.687 and 0.6848 | Cell viability (fraction of DMSO control) ([2]; QST 25 nM (log[nM] 1.39794)): 0.6366 and 0.6132 | Cell viability (fraction of DMSO control) ([2]; QST 50 nM (log[nM] 1.69897)): 0.5332 and 0.5323 | Cell viability (fraction of DMSO control) ([2]; QST 100 nM (log[nM] 2)): 0.436 and 0.4247 | Cell viability (fraction of DMSO control) ([2]; QST 250 nM (log[nM] 2.39794)): 0.3077 and 0.3032 | Cell viability (fraction of DMSO control) ([2]; QST 500 nM (log[nM] 2.69897)): 0.2399 and 0.2412 | Cell viability (fraction of DMSO control) ([2]; QST 1000 nM (log[nM] 3)): 0.2213 and 0.2152 | pIC50 ([3]; Homo sapiens, 3-5 days): 7.19 | viability at 0.01 µM [3, 5]: 78.8% | viability at 0.025 µM [3, 6]: 77.1% | viability at 0.05 µM [3, 7]: 66.9% | viability at 0.1 µM [3, 8]: 51.1% | viability at 0.25 µM [3, 9]: 37.7% | viability at 0.5 µM [3, 10]: 30.8% | viability at 1 µM [3, 11]: 26.5% | Cell viability (fraction of DMSO control) ([3]; QST 10 nM (log[nM] 1)): 0.7668 and 0.8052 | Cell viability (fraction of DMSO control) ([3]; QST 25 nM (log[nM] 1.39794)): 0.6655 and 0.6833 | Cell viability (fraction of DMSO control) ([3]; QST 50 nM (log[nM] 1.69897)): 0.651 and 0.6783 | Cell viability (fraction of DMSO control) ([3]; QST 100 nM (log[nM] 2)): 0.4804 and 0.526 | Cell viability (fraction of DMSO control) ([3]; QST 250 nM (log[nM] 2.39794)): 0.3237 and 0.3695 | Cell viability (fraction of DMSO control) ([3]; QST 500 nM (log[nM] 2.69897)): 0.2733 and 0.2932 | Cell viability (fraction of DMSO control) ([3]; QST 1000 nM (log[nM] 3)): 0.2807 and 0.2449 | Cell viability (fraction of DMSO control) ([4]; QST 10 nM (log[nM] 1)): 0.8159 and 0.818 | Cell viability (fraction of DMSO control) ([4]; QST 25 nM (log[nM] 1.39794)): 0.6846 and 0.6788 | Cell viability (fraction of DMSO control) ([4]; QST 50 nM (log[nM] 1.69897)): 0.5694 and 0.5366 | Cell viability (fraction of DMSO control) ([4]; QST 100 nM (log[nM] 2)): 0.3389 and 0.3234 | Cell viability (fraction of DMSO control) ([4]; QST 250 nM (log[nM] 2.39794)): 0.1954 and 0.198 | Cell viability (fraction of DMSO control) ([4]; QST 500 nM (log[nM] 2.69897)): 0.1408 and 0.1494 | Cell viability (fraction of DMSO control) ([4]; QST 1000 nM (log[nM] 3)): 0.1055 and 0.1137 | viability at 0.01 µM [4, 5]: 79.7% | viability at 0.025 µM [4, 6]: 64% | viability at 0.05 µM [4, 7]: 46.2%

— publication PMC10721329, “Quisinostat is a brain-penetrant radiosensitizer in glioblastoma” (JCI Insight, 2023)
